A value given as a limit tells only on which side of the number the result lay.

One experiment has as its system COV318 cells. In words: Inhibition of cell proliferation, CyQUANT Direct, COV318. The class given is cell-based. To be noted: Homo sapiens; COV318 ovarian cancer cells, 72-hour; read-out: COV 318 proliferation calculated IC50. The procedure:
(§1) HCC70 and MB453 cells are cell lines derived from human triple negative breast cancer. COV318 and COV504 cells are cell lines derived from human ovarian cancer. Representative compounds of the invention were tested at different concentrations (from 4 μM to 126.4 pM; 0.5 log serial dilutions) for their ability to inhibit the proliferation of each of these cell lines. Known CDK inhibitors dinaciclib or N-((1S,3R)-3-((5-chloro-4-(1H-indol-3-yl) pyrimidin-2-yl)amino)cyclohexyl)-5-((E)-4-(dimethylamino)but-2-enamido)picolinamide and triptolide were used as positive controls. Cells were seeded at approximately 2,000 cells/well and grown in ATCC-formulated RPMI-1640 Medium (ATCC 30-2001)+10% FBS. The cells were cultured at 37° C. in a humidified chamber in the presence of 5% CO2. Proliferation assays were conducted over a 72-hour time period. CyQUANT® Direct Cell Proliferation Assay (Life Technologies, Chicago, IL USA) was used to assess the anti-proliferative effects of the compounds following manufacturer's directions and utilizing the reagents supplied with the CyQUANT® Direct Cell kit.

Experiment [1] addresses CDK7/Cyclin H/MAT1 complex (Homo sapiens, UniProt P50613). The experiment is described as follows: CDK7 kinase inhibition assay (Caliper/LabChip EZ Reader).
Method: (§2) Compounds of the invention were assayed for inhibition of CDK7, CDK9, CDK12, and CDK2 activity at Biortus Biosciences (Jiangyin, Jiangsu Province, P.R. of China) using kinase assays for each CDK developed with a Caliper/LabChip EZ Reader (Perkin Elmer, Waltham, MA).
(§3) Furthermore, the CDK9 inhibition assay used CDK9/Cyclin T1 complex (8 nM) and “5-FAM-CDK9tide” peptide substrate (2 μM, synthesized fluorophore-labeled peptide with the following sequence: 5-FAM-GSRTPMY-NH2 (SEQ ID NO:2) where 5-FAM is defined above and NH2 signifies a C-terminal amide) with 10 mM MgCl2 in the buffer composition listed above. The CDK12 inhibition assay used CDK12 (aa686-1082)/Cyclin K complex (50 nM) and “5-FAM-CDK9tide” (2 μM) as defined above, with 2 mM MgCl2 in the buffer composition above. Additionally, the CDK2 inhibition assay used CDK2/Cyclin E1 complex (0.5 nM) and “5-FAM-CDK7tide” (2 μM) as defined above, with 2 mM MgCl2 in the buffer composition listed above.
(§4) The incubation period at 27° C. for each CDK inhibition assay was chosen such that the fraction of phosphorylated peptide product produced in each assay, relative to the total peptide concentration, was approximately 20% (±5%) for the uninhibited kinase (35 min. for CDK7, 35 min. for CDK2, 3 hr. for CDK12, 15 min. for CDK9).
In another experiment the test system is COV504 cells. In words: Inhibition of cell proliferation, CyQUANT Direct, COV504. The class given is cell-based. The conditions noted are these: Homo sapiens; COV504 ovarian cancer cells, 72-hour; read-out: COV 504 proliferation calculated IC50. The procedure:
as §1

The target of the next experiment is CDK9/Cyclin T1 complex (Homo sapiens, UniProt P50750). The experiment is described as follows: CDK9 kinase inhibition assay (Caliper/LabChip EZ Reader).
CDK9/Cyclin T1 complex, sequence (P50750 whole entry): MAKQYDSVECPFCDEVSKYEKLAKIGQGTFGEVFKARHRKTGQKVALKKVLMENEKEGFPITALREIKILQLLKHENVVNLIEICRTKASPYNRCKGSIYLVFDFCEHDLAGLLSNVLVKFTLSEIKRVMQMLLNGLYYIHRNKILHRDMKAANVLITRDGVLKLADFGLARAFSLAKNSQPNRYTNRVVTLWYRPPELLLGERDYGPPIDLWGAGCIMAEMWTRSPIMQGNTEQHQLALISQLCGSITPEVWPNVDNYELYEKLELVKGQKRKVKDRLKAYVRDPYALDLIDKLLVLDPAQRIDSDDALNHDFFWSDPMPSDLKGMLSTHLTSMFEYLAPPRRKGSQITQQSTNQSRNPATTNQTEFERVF
CDK9/Cyclin T1 complex, sequence (O60563 whole entry partner): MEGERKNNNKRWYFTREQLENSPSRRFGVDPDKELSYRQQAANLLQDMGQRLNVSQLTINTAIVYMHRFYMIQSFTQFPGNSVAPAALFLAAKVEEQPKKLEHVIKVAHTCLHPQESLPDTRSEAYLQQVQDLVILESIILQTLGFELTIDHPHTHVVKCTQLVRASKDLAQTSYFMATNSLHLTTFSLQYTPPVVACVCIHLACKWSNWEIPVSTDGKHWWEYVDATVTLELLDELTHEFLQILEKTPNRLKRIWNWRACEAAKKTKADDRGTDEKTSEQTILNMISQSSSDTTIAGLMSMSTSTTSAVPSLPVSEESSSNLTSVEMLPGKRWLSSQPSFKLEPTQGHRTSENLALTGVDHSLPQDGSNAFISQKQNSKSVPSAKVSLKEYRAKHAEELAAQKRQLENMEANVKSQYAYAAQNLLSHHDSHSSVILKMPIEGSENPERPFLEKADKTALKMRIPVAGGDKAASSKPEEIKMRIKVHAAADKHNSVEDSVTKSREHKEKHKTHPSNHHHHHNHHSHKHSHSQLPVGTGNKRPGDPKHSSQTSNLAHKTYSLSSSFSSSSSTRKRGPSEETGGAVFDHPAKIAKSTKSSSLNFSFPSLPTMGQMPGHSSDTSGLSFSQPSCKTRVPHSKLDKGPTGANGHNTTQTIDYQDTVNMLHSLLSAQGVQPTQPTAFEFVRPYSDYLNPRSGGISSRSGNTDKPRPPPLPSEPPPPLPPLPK
In the next experiment the test system is HCC70 cells. The experiment is described as follows: Inhibition of cell proliferation, CyQUANT Direct, HCC70. It is filed as cell-based, human. To be noted: Homo sapiens; HCC70 triple negative breast cancer cells, 72-hour; read-out: HCC 70 proliferation calculated IC50. The method, then:
as §1

The next experiment concerns MB453 cells. In words: Inhibition of cell proliferation, CyQUANT Direct, MB453. The class given is cell-based, human. The conditions noted are these: Homo sapiens; MB453 triple negative breast cancer cells, 72-hour; read-out: MB 453 proliferation calculated IC50. The method, then:
as §1

The target of experiment [2] is CDK12 (aa686-1082)/Cyclin K complex (Homo sapiens, UniProt Q9NYV4). The experiment is described as follows: CDK12 kinase inhibition assay (Caliper/LabChip EZ Reader).
CDK12 (aa686-1082)/Cyclin K complex, sequence (Q9NYV4 686-1082): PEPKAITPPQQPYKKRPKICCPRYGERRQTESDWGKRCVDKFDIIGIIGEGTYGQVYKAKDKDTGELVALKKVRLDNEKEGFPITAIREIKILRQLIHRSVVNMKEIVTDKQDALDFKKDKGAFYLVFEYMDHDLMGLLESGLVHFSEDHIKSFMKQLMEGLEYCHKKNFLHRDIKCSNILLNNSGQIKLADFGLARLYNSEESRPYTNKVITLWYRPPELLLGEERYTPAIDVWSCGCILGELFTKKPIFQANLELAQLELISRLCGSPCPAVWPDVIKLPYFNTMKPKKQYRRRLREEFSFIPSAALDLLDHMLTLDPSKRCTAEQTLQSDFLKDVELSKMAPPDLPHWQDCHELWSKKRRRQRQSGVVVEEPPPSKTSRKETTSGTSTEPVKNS
CDK12 (aa686-1082)/Cyclin K complex, sequence (O75909 whole entry partner, the tested form may be a part): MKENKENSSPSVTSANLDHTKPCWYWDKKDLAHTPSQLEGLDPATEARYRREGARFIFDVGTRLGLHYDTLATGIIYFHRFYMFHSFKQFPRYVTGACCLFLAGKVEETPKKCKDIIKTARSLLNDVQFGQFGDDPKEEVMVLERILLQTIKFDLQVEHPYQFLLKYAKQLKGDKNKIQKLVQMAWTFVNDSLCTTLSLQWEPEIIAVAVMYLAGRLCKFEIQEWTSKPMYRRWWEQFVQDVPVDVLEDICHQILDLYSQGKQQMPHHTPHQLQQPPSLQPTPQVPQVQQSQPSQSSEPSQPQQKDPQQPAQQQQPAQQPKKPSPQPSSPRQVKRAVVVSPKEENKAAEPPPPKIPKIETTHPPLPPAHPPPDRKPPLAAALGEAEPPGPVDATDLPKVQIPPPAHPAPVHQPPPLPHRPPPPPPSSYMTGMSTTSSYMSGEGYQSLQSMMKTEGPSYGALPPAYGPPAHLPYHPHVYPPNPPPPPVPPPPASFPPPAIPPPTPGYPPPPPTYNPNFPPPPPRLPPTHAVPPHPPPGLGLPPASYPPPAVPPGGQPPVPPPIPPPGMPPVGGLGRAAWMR
Method: as §2, §3, §4
The target of the next experiment is CDK2/Cyclin E1 complex (Homo sapiens, UniProt P24941). In words: CDK2 kinase inhibition assay (Caliper/LabChip EZ Reader).

CDK7/Cyclin H/MAT1 complex, sequence (P50613 whole entry): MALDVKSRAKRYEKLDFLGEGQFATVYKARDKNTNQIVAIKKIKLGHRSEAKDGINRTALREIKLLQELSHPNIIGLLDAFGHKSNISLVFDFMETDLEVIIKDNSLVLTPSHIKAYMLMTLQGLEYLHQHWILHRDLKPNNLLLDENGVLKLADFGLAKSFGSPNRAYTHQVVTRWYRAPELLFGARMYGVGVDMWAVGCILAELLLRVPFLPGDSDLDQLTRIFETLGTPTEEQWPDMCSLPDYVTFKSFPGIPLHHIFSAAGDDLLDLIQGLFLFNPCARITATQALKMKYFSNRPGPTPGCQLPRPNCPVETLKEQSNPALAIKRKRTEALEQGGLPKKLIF
CDK7/Cyclin H/MAT1 complex, sequence (P51946 whole entry partner): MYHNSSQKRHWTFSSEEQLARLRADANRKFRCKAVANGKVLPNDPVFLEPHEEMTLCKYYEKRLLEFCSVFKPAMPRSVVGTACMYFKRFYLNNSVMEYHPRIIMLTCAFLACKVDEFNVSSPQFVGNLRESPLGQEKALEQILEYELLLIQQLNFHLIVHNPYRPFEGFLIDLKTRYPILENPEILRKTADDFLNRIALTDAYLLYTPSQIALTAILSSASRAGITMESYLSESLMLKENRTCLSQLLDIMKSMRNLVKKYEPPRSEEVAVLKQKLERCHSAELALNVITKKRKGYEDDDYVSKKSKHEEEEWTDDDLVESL
CDK7/Cyclin H/MAT1 complex, sequence (P51948 whole entry partner): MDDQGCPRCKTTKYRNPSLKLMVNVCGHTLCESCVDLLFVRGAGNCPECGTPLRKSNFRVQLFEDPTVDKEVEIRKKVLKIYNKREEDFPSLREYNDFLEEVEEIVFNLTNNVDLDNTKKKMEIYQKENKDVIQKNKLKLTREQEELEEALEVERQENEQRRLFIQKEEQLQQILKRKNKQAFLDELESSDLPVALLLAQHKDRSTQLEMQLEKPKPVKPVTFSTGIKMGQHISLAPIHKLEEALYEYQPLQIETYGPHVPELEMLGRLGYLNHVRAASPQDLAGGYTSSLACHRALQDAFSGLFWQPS
Method for CDK9/Cyclin T1 complex: as §2, §3, §4

Regarding `CN(C)[C@H]1CC[C@@H]1Nc1ncc(C(F)(F)F)c(-c2c[nH]c3cc(C#N)ccc23)n1` [Compound 126, 3-[2-[[(1S,2S)-2-(dimethylamino)cyclobutyl]-amino]-5-(trifluoromethyl)pyrimidin-4-yl]-1H-indole-6-carbonitrile], the IC50 in the experiment on COV318 cells is more than 2000 nM; in experiment [1], 30 to 100 nM; in the experiment on COV504 cells it was 100 to 500 nM; against CDK9/Cyclin T1 complex it was more than 500 nM; with HCC70 cells it was more than 2000 nM; in the experiment with MB453 cells, 100 to 500 nM. The IC50 (in experiment [2]; against CDK2/Cyclin E1 complex) was more than 500 nM each time.

In the case of `Cc1noc(C)c1-c1ccc2c(-c3nc(NC4CCCC4N)ncc3C(F)(F)F)c[nH]c2n1` (centres unmarked) [Compound 127], the IC50 was 100 to 500 nM in the experiment with COV318 cells; less than 30 nM in experiment [1]; less than 100 nM in the experiment with COV504 cells; more than 500 nM against CDK9/Cyclin T1 complex; less than 100 nM in the experiment on HCC70 cells; less than 100 nM with MB453 cells. Moreover, the IC50 (in experiment [2]; at CDK2/Cyclin E1 complex) was more than 500 nM throughout.

Consider `CCN[C@H]1CCC[C@@H]1Nc1ncc(C(F)(F)F)c(-c2c[nH]c3cc(C#N)ccc23)n1` [Compound 128, 3-[2-[[(1S,2S)-2-(ethylamino)cyclopentyl]-amino]-5-(trifluoromethyl)pyrimidin-4-yl]-1H-indole-6-carbonitrile], for which the IC50 in the experiment on COV318 cells was 100 to 500 nM; in experiment [1] it was less than 30 nM; with COV504 cells, less than 100 nM; against CDK9/Cyclin T1 complex, more than 500 nM; with HCC70 cells it was less than 100 nM; with MB453 cells, less than 100 nM. Moreover, the IC50 (in experiment [2]; on CDK2/Cyclin E1 complex) was more than 500 nM in each case.

Regarding `Cc1noc(C)c1-c1ccc2c(-c3nc(N[C@H]4CC[C@@H]4N)ncc3C(F)(F)F)c[nH]c2n1` [Compound 129, (1S,2S)—N2-[4-[6-(3,5-dimethylisoxazol-4-yl)-1H-pyrrolo[2,3-b]pyridin-3-yl]-5-(trifluoromethyl)pyrimidin-2-yl]-cyclobutane-1,2-diamine], the IC50 with COV318 cells was 100 to 500 nM; in experiment [1] it was less than 30 nM; in the experiment with COV504 cells it was less than 100 nM; on CDK9/Cyclin T1 complex, more than 500 nM; in the experiment on HCC70 cells, 100 to 500 nM; in the experiment with MB453 cells, less than 100 nM. For the same molecule, the IC50 (in experiment [2]; on CDK2/Cyclin E1 complex) was more than 500 nM throughout.

In the case of `N#Cc1ccc2c(-c3nc(N[C@H]4CC[C@@H]4N4CCOCC4)ncc3C(F)(F)F)c[nH]c2c1` [Compound 130], the IC50 in the experiment on COV318 cells was more than 2000 nM; in experiment [1], 100 to 500 nM; in the experiment with COV504 cells, more than 2000 nM; at CDK9/Cyclin T1 complex, more than 500 nM; in the experiment with HCC70 cells it was more than 2000 nM; in the experiment on MB453 cells, more than 2000 nM. In addition, the IC50 (in experiment [2]; against CDK2/Cyclin E1 complex) was more than 500 nM in each case.

Take `CCN[C@H]1CC[C@@H]1Nc1ncc(C(F)(F)F)c(-c2c[nH]c3cc(C#N)ccc23)n1` [Compound 131, 3-[2-[[(1S,2S)-2-(ethylamino)cyclobutyl]-amino]-5-(trifluoromethyl)pyrimidin-4-yl]-1H-indole-6-carbonitrile]: the IC50 is 500 to 2000 nM in the experiment on COV318 cells; less than 30 nM in experiment [1]; 100 to 500 nM with COV504 cells; more than 500 nM on CDK9/Cyclin T1 complex; 500 to 2000 nM in the experiment on HCC70 cells; 100 to 500 nM in the experiment with MB453 cells. Besides, the IC50 (in experiment [2]; on CDK2/Cyclin E1 complex) was more than 500 nM each time.

For the molecule `N#Cc1ccc2c(-c3nc(N[C@@H]4CC[C@H]4N4CCOCC4)ncc3C(F)(F)F)c[nH]c2c1` [Compound 132], the IC50 is more than 2000 nM in the experiment with COV318 cells; more than 500 nM in experiment [1]; more than 2000 nM with COV504 cells; more than 500 nM against CDK9/Cyclin T1 complex; more than 2000 nM in the experiment on HCC70 cells; more than 2000 nM in the experiment with MB453 cells. The IC50 (in experiment [2]; against CDK2/Cyclin E1 complex) was more than 500 nM each time.

On to `COCCN[C@H]1CC[C@@H]1Nc1ncc(C(F)(F)F)c(-c2c[nH]c3cc(C#N)ccc23)n1` [Compound 133], for which the IC50 in the experiment with COV318 cells was 500 to 2000 nM; in experiment [1], 30 to 100 nM; in the experiment with COV504 cells it was 500 to 2000 nM; against CDK9/Cyclin T1 complex it was more than 500 nM; in the experiment on HCC70 cells, 500 to 2000 nM; in the experiment on MB453 cells, 500 to 2000 nM. The IC50 (in experiment [2]; against CDK2/Cyclin E1 complex) was more than 500 nM throughout.

Consider `N#Cc1ccc2c(-c3nc(N[C@H]4CC[C@@H]4N4CCCC4)ncc3C(F)(F)F)c[nH]c2c1` [Compound 135, 3-[2-[[(1S,2S)-2-pyrrolidin-1-ylcyclobutyl]-amino]-5-(trifluoromethyl)pyrimidin-4-yl]-1H-indole-6-carbonitrile], for which the IC50 is more than 2000 nM in the experiment with COV318 cells; less than 30 nM in experiment [1]; 500 to 2000 nM in the experiment on COV504 cells; more than 500 nM against CDK9/Cyclin T1 complex; more than 2000 nM with HCC70 cells; 100 to 500 nM in the experiment with MB453 cells. For the same molecule, the IC50 (in experiment [2]; on CDK2/Cyclin E1 complex) was more than 500 nM each time.

For the molecule `Cc1noc(C)c1-c1ccc2c(-c3nc(N[C@@H]4C[C@@H]5CC[C@H]4N5)ncc3C(F)(F)F)c[nH]c2c1` [Compound 137, (1S,2S,4R)—N-[4-[6-(3,5-dimethylisoxazol-4-yl)-1H-indol-3-yl]-5-(trifluoromethyl)pyrimidin-2-yl]-7-azabicyclo-[2.2.1]-heptan-3-amine], the IC50 with COV318 cells is 100 to 500 nM; in experiment [1] it was less than 30 nM; in the experiment on COV504 cells it was less than 100 nM; against CDK9/Cyclin T1 complex, more than 500 nM; with HCC70 cells, less than 100 nM; in the experiment with MB453 cells it was less than 100 nM. In addition, the IC50 (in experiment [2]; at CDK2/Cyclin E1 complex) was more than 500 nM in each case.

With `Cc1noc(C)c1-c1ccc2c(-c3nc(N[C@H]4C[C@H]5CC[C@@H]4N5)ncc3C(F)(F)F)c[nH]c2n1` [Compound 139], the IC50 was 500 to 2000 nM in the experiment on COV318 cells; less than 30 nM in experiment [1]; 100 to 500 nM in the experiment with COV504 cells; more than 500 nM against CDK9/Cyclin T1 complex; 100 to 500 nM in the experiment with HCC70 cells; 100 to 500 nM in the experiment with MB453 cells. For the same molecule, the IC50 (in experiment [2]; on CDK2/Cyclin E1 complex) was more than 500 nM throughout.

On to `Cc1noc(C)c1-c1ccc2c(-c3nc(N[C@@H]4C[C@@H]5CC[C@H]4N5)ncc3C(F)(F)F)c[nH]c2n1` [Compound 140], for which the IC50 with COV318 cells was less than 100 nM; in experiment [1] it was less than 30 nM; in the experiment on COV504 cells it was less than 100 nM; at CDK9/Cyclin T1 complex, more than 500 nM; in the experiment with HCC70 cells it was less than 100 nM; in the experiment on MB453 cells it was less than 100 nM. Also, the IC50 (in experiment [2]; at CDK2/Cyclin E1 complex) was more than 500 nM throughout.

On to `Cc1noc(C)c1-c1ccc2c(-c3nc(N[C@H]4C[C@H]5CC[N@](CC5)C4)ncc3C(F)(F)F)c[nH]c2n1` [Compound 141, (3S)—N-[4-[6-(3,5-dimethylisoxazol-4-yl)-1H-pyrrolo[2,3-b]pyridin-3-yl]-5-(trifluoromethyl)pyrimidin-2-yl]-1-azabicyclo[3.2.2]nonan-3-amine], for which the IC50 with COV318 cells is less than 100 nM; in experiment [1] it was less than 30 nM; with COV504 cells it was less than 100 nM; on CDK9/Cyclin T1 complex, more than 500 nM; in the experiment with HCC70 cells, less than 100 nM; with MB453 cells it was less than 100 nM. In addition, the IC50 (in experiment [2]; at CDK2/Cyclin E1 complex) was more than 500 nM throughout.

(Values after patent publication US11918592B2, “Inhibitors of cyclin dependent kinase 7 (CDK7)” (Syros Pharmaceuticals, Inc., priority 2018, dated 2024).)
